Results taken from patent publication US20100009860A1, “Device and method for analysis of interactions between biomolecules” (priority 2004, published 2010).
Ends that are not written are not given here.

Assays:
[1] = system: streptavidine-peptide/strep-tag II interaction; assay: Inhibition of streptavidine-peptide/strep-tag II interactions on MG3 peptide-pair array, fluorescence read-out; type: binding; conditions: membrane incubated 30 min with agent (0.5 mM biotine) before analysis; excitation 366 nm, emission 510-530 nm
Method: The reading of the signal by fluorescence and the inhibition of the streptavidine-peptide/strep-tag II-interactions using the natural product biotine and their derivatives are shown.
A) The chemical structure of the exemplary molecular fork MG3.
The peptide being at the side of Fmoc was marked with a danysl-radical and the peptide being at the Aloc-side was marked with fluoresceine. The analysis was performed by detection of the light emission at 510-530 nm after excitation with light of a wave length of 366 nm using the Raytest DIANA chemiluminescence detection system. […]
Peptide pairs were synthesized at MG3 (FIG. 17A), whereby the constant peptide block strep-tag II was synthesized at the Aloc-side and marked with a fluoresceine radical. […] Differences in fluorescence properties of the spots were obtained with different peptide pairs, an enhanced fluorescence emission was detected for interacting peptide pairs.
For the inhibition of interaction of the peptide pairs, the modified membrane was treated with high-affinated, low-affine and non-affine agents with similar chemical properties before the analysis. […] Subsequently, the analysis of the fluorescence properties of the spots was carried out.

[2] = molecular target: streptavidine (Streptomyces avidinii, UniProt P22629); assay: Streptavidine/strep-tag II interaction using inhibition with biotine (Western blot, immunodetection); type: binding; conditions: 60 μg streptavidine/6 μg biotine, 1 h pre-incubation
Sequence of streptavidine (Streptomyces avidinii, UniProt P22629) (P22629 25-183): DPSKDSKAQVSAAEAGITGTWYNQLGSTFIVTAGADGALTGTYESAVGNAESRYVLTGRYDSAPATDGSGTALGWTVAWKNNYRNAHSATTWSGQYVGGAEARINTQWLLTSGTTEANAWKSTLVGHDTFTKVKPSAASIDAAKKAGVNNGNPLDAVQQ
Method: The cellulose, which was modified with peptide pairs corresponding to the embodiment shown in FIG. 7 by molecular forks MG1, was analyzed using the previously formed biotine/streptavidine-complex (60 μg streptavidine/6 μg biotine, 1 h pre-incubation) followed by Western Blot-analysis and immunodetection. A) Only just one side on the MG1 was attached to oligopeptides of the streptavidine-scans. The other side was modified by an acetylation reaction. B) Only just one side on the MG1 was attached to oligopeptides of the streptavidine-scan, and the strep-tag II-peptide was synthesized on the other side.
As described in example 2, peptide pairs were synthesized at the MG2, whereby the constant peptide block strep-tag II was synthesized at the Dde-side. At the Fmoc-side, overlapping 12 mer peptides were synthesized spanning the entire streptavidine-sequence with a 2-aminoacid shift. 60 μg streptavidine were pre-incubated using 6 μg biotine in the MP-buffer (30 mM tris-HCl, pH 7.6, 170 mM NaCl, 6.4 mM KCl, 0.05% Tween 20, 5% sucrose) for 60 min and it was subsequently incubated overnight at 4° C. while shaking with the cellulose. […]
A densitometric analysis of the intensities of each spot was performed by a GS-700 imaging densitometer (Bio-Rad) for quantifying the signals (FIG. 12).

[3] = molecular target: T1, FKBP12 (Mus musculus, UniProt P26883); assay: Mapping of FKBP12 binding sites by classical SPOT-technology and protein interaction analysis; conditions: SPOT peptide scan of FAP48 / cytosolic domain of EGF-receptor
T1 sequence (P26883 whole entry, the tested form may be a part): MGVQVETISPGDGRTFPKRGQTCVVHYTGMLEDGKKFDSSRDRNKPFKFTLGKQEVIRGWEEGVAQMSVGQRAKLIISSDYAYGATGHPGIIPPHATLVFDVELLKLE
Source text: In a first step, the FKBP12-binding sites in the FAP48 were mapped using classical SPOT-technology and protein interaction analysis.
In a first step, the FKBP12 binding sites in the cytosolic domain of the EGF-receptor (EGFR) were mapped by classical SPOT-technology and protein interaction analysis. […] Then, peptide pairs were synthesized at the MG12, as described in example 2, whereby the constant peptide block Ac-PHVCRLLGICLTS was synthesized at the Dde-side. At the Fmoc-side, overlapping 13 mer peptides were synthesized spanning the entwire FKBP12-sequence with a 2-aminoacid shift. In each case 48 individual spots resulted therefrom.

[4] = system: streptavidine; conditions: cited from earlier work
[5] = molecular target: T1, FKBP12; assay: Mapping of interaction region with peptide pairs on molecular fork MG2, FKBP12 as detection molecule; type: binding; conditions: 200 nM FKBP12, overlapping 13 mer FKBP12 peptides, 2-amino acid shift, cellulose
Method: A) The cellulose modified with peptide pairs by molecular forks MG2 was analyzed using 200 nM FKBP12 followed by Western Blot-analysis and immunodetection. The constant peptide block acetyl-KCPLLTAQFFEQS of FAP (Lys217-Ser229) was synthesized at the Dde-side. At the Fmoc-side, overlapping 13 mer peptides were synthesized spanning the entire FKBP12-sequence with a 2-amino acid shift. The densitometric analysis was performed using a GS-700 imaging densitometer (Bio-Rad). The ordinate represents the difference from the inverse value of the intensity of each spot and the inverse value of the average spot intensities. Large positive values correspond to a weak signal in the blot and show potential interactions within the peptide pair.
(§1) B) The cellulose modified with peptide pairs by molecular forks MG2 was analyzed using 200 nM FKBP12 followed by the Western Blot-analysis and immunodetection. […] The ordinate represents the difference from the inverse value of the intensity of each analyzed spot and the inverse value of the average spot intensities. […]
as §1, with “The” for “B) The”, “intensity.” for “intensities.”

O=C(O)CCCC[C@@H]1SC[C@@H]2NC(=O)N[C@@H]21 [biotine]
fluorescence emission of the spots (inhibition of peptide pair interaction) [1]: decreased | bond of the streptavidine on the strep-tag II-peptide [2]: blocked

LSPLYLLQFNMGH (Ac-LSPLYLLQFNMGH; not fully specified)
interaction to FKBP12 [3]: mediate an interaction to FKBP12

N[C@@H]1[C@H](CCCCC(=O)O)SC[C@@H]1N [diaminobiotine]
fluorescence emission of the spots (inhibition of peptide pair interaction) [1]: very similar to the original fluorescence behaviour without a pharmaceutical agent

N=C1N[C@H]2[C@H](CS[C@H]2CCCCC(=O)O)N1 [2-iminobiotine]
Ka [4]: 8e+06 M⁻¹

KCPLLTAQFFEQS (Ac-KCPLLTAQFFEQS; not fully specified)
interaction to FKBP12 [3]: mediate an interaction to FKBP12

acetyl-PHVCRLLGICLTS (Ac-PHVCRLLGICLTS; cysteine pairing not given here)
interaction region in FKBP12 [5]: Met21-Ser67

PHVCRLLGICLTS (Ac-PHVCRLLGICLTS; cysteine pairing not given here)
interaction to FKBP12 [3]: particularly strong interacting
